Laboratory results taken from US5883240A, “Genetic sequences encoding glucocorticoid dehydrogenases and uses therefor” (Baker Medical Research Institute, priority 1995, dated 1999).

How the values were obtained:
11 βHSD2 [1] = target: T1, 11 βHSD2 (Homo sapiens, UniProt P80365); experiment: Directionality and end-product inhibition in intact pHSD2 transfected CHOP cells; assay type: cell-based; conditions: monolayer cultures, 1.5 hours at 37° C., labelled substrate, TLC of culture medium
T1 sequence (P80365 1-405 V148L): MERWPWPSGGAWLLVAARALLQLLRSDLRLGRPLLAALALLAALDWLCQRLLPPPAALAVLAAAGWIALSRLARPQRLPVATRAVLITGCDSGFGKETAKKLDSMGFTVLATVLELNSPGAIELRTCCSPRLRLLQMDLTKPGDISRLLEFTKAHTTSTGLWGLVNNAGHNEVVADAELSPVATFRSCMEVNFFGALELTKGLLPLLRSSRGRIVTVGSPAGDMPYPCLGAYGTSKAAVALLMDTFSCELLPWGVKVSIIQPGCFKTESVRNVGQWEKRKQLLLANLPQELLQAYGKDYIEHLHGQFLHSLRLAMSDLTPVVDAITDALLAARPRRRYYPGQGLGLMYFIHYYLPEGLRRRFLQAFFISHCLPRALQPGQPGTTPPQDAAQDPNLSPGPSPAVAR
Protocol: To determine directionality and extent of end production inhibition of the enzyme encoded by pHSD2, monolayer cultures of transfected CHOP cells were incubated for 1.5 hours at 37° C. with 1-2 nM labelled substrates plus 10 nM corresponding unlabelled 11-dehydro metabolite (FIG. 2b). The culture medium was then removed, extracted and assayed by TLC for the presence of the 11-dehydro metabolite.

11 βHSD2 [2] = target: T1, 11 βHSD2; assay type: biochemical; conditions: substrate Km, double reciprocal plot, homogenates of pHSD2 transfected CHOP cells, 37° C., mean±SD, n=3
Excerpt: The efficiency of the dehydrogenase may be further increased by mechanisms such as intracellular compartmentalisation of the enzyme.

11 βHSD2 [3] = target: T1, 11 βHSD2; experiment: Cofactor specificity of glucocorticoid metabolism in homogenates of pHSD2 transfected CHOP cells; assay type: biochemical; conditions: 1 mM NAD+ or 1 mM NADP+, 1-2 nM tritiated plus 10 nM unlabelled substrate, 37° C., 40 minutes, TLC
Protocol: CHOP cells were transfected with plasmid pHSD2, which contains an insert encoding 11 βHSD2. After 60 hours incubation in 85 mm plates, cellular homogenates were prepared and assayed for their ability to metabolise glucocorticoid substrates in the presence of 1 mM NAD+, or 1 mM NADP+. Confluent cells were homogenised in 1 ml of homogenisation buffer (0.25M sucrose, 10 MM phosphate, pH 7). Reaction mixtures (500 μl) contained either 40 μl of homogenate plus [^3 H]corticosterone, or 80 μl of homogenate plus [^3 H]cortisol, or 120 μl of homogenate plus [^3 H]dexamethasone, in homogenisation buffer. All reactions contained 1-2 nM tritiated glucocorticoid substrate plus 10 nM unlabelled glucocorticoid substrate. Reaction mixtures were incubated at 37° C. for 40 minutes and steroid metabolites were assayed by thin layer chromatography.

| SMILES | metabolite formation by intact transfected CHOP cells (11 βHSD2 [1]) | Km (11 βHSD2 [2]) [µM] | glucocorticoid metabolism to 11-dehydro metabolite, cofactor dependence (11 βHSD2 [3]) |
| --- | --- | --- | --- |
| C[C@]12CC(=O)[C@H]3[C@@H](CCC4=CC(=O)CC[C@@]43C)[C@@H]1CC[C@@H]2C(=O)CO [11-dehydro corticosterone] | no metabolite formed |  |  |
| C[C@]12C[C@H](O)[C@H]3[C@@H](CCC4=CC(=O)CC[C@@]43C)[C@@H]1CC[C@@H]2C(=O)CO [corticosterone] | converted | 0.0044 ± 0.0012 | only showed significant glucocorticoid metabolism when NAD+, but not NADP+, was included as a cofactor |
| C[C@]12CCC(=O)C=C1CC[C@@H]1[C@@H]2[C@@H](O)C[C@@]2(C)[C@H]1CC[C@]2(O)C(=O)CO [cortisol] | converted | 0.047 ± 0.0018 | only showed significant glucocorticoid metabolism when NAD+, but not NADP+, was included as a cofactor |
| C[C@]12CCC(=O)C=C1CC[C@@H]1[C@@H]2C(=O)C[C@@]2(C)[C@H]1CC[C@]2(O)C(=O)CO [cortisone] | no metabolite formed |  |  |
| C[C@@H]1C[C@H]2[C@@H]3CCC4=CC(=O)C=C[C@]4(C)[C@@]3(F)[C@@H](O)C[C@]2(C)[C@@]1(O)C(=O)CO [dexamethasone] |  |  | only showed significant glucocorticoid metabolism when NAD+, but not NADP+, was included as a cofactor |
